Converted amounts (≈) assume the structure as drawn.
Key:
[1] = test system: Mycobacterium tuberculosis; assay: (§1) Antimycobacterial activity against isoniazid, rifampicin, ethambutol and pyrazinamide sensitive Mycobacterium tuberculosis H37Rv ATCC 25618 assessed as inhibition of bacterial growth incubated for 7 days by resazurin dye based colorimetric method analysis; assay type: functional; conditions: H37Rv ATCC 25618, 168 h, time 7 day
[2] = Cytotoxicity against mouse J774.A1 cells assessed as reduction in cell population incubated for 48 hrs by MTT assay; assay type: toxicity, cell-based
[3] = test system: Mycobacterium tuberculosis; assay: as §1, with “Potency index, ratio of ethambutol MIC to test compound MIC for antimycobacterial” for “Antimycobacterial”; assay type: functional; conditions: time 7 day
[4] = Cytotoxicity against human HepG2 cells assessed as reduction in cell population incubated for 48 hrs by MTT assay; assay type: toxicity, cell-based
[5] = Cytotoxicity against African green monkey Vero cells assessed as reduction in cell population incubated for 48 hrs by MTT assay; assay type: toxicity, cell-based; conditions: chlorocebus sabaeus
[6] = test system: Mycolicibacterium smegmatis; assay: Antimycobacterial activity against Mycobacterium smegmatis ATCC607 incubated for 24 hrs by resazurin dye based broth microdilution method; assay type: functional
[7] = test system: Staphylococcus aureus; assay: Antibacterial activity against Staphylococcus aureus ATCC 25923 incubated for 18 hrs by resazurin dye based broth microdilution method; assay type: functional
[8] = test system: Klebsiella pneumoniae; assay: Antibacterial activity against Klebsiella pneumoniae ATCC 13883 incubated for 18 hrs by resazurin dye based broth microdilution method; assay type: functional

Row | Structure (SMILES) | MIC [1] [µM] | CC50 at 48 h [2] [µM] | Ratio [3] | CC50 at 48 h [4] [µM] | CC50 at 48 h [5] [µM] | MIC [6] [µM] | MIC [7] [µM] | MIC [8] [µM]
1 | CCCCCCCCCCCCCCCC(CNCCCCCC)NC(=O)OC(C)(C)C (configuration not stated) | 8 (≈ 3.64 µg/mL) | 20.8 | 45 | 86.8 | 22.9 | 128 (≈ 58.2 µg/mL) | 256 (≈ 116 µg/mL) | > 512
2 | CCCCCCCCCCCCCCCC(N)CNCC (configuration not stated) | 32 (≈ 9.55 µg/mL) | 25.6 | 11 |  | 40.1 |  |  | 
3 | CCCCc1ccc(CCCCCCCC(CO)NC(=O)OC(C)(C)C)cc1 (configuration not stated) | 32 (≈ 12.5 µg/mL) | 12.9 | 11 |  | 28.3 |  |  | 
4 | CCCCCCCCCCCCCCCCCC(CO)NCCCC (configuration not stated) | 32 (≈ 11.4 µg/mL) | 31.1 | 11 |  | 148 | 512 (≈ 182 µg/mL) | 512 (≈ 182 µg/mL) | > 512
5 | CCCCCCCCCCCCCCCC(CO)N(CCCC)CCCC (configuration not stated) | 8 (≈ 3.07 µg/mL) | 22.4 | 45 | 82.5 | 47.2 | > 512 |  | 
6 | CCCCCCCCCCCCCCCCCCCC(COCc1ccccc1)NCC (configuration not stated) | 16 (≈ 7.13 µg/mL) | 52.3 | 23 | 95.1 | 67.8 | 128 (≈ 57.1 µg/mL) | > 512 | > 512
7 | CCCCc1ccc(CCCCCC(N)CO)cc1 (configuration not stated) | 64 (≈ 16.9 µg/mL) | 10.7 | 6 |  | 27.8 |  |  | 
8 | CCCCCCCCCCCCCCCC(CNCC)NC(=O)OC(C)(C)C (configuration not stated) | 16 (≈ 6.38 µg/mL) | 19.8 | 23 | 107 | 17.7 | 32 (≈ 12.8 µg/mL) | ≤ 4 | 512 (≈ 204 µg/mL)
9 | CCCCCCCCCCCCCCCCCC(N)CO (configuration not stated) | 8 (≈ 2.4 µg/mL) | 9.65 | 45 | 200 | 53.2 | 256 (≈ 76.7 µg/mL) | 256 (≈ 76.7 µg/mL) | > 512
10 | CCCCCCCCCCCCCCCCCC(N)COCc1ccccc1 (configuration not stated) | 64 (≈ 24.9 µg/mL) | 93.3 | 6 |  | 138 | > 512 | > 512 | > 512
11 | CCCCCCCCCCCCCCCCCCCC(CO)N(CC)CC (configuration not stated) | > 64 | 102 | <5.6 |  | 117 | > 512 | > 512 | > 512
12 | CCCCCCCCCCCC(CO)N(CC)CC (configuration not stated) | 64 (≈ 17.4 µg/mL) | 17.6 | 6 |  | 36.2 |  |  | 
13 | CCCCCCCCCCCC(CO)NCC (configuration not stated) | > 64 | 10.5 | >5.6 |  | 37.3 |  |  | 
14 | CCCCc1ccc(CCCCCCCCCC(CO)NC(=O)OC(C)(C)C)cc1 (configuration not stated) | 32 (≈ 13.4 µg/mL) | 15.8 | 11 |  | 31 |  |  | 
15 | CCCCc1ccc(CCCCCCCCCC(N)CO)cc1 (configuration not stated) | 8 (≈ 2.56 µg/mL) | 11.7 | 45 | 45.6 | 25.4 |  |  | 
16 | CCCCCCCCCCCC(CNCC)NC(=O)OC(C)(C)C (configuration not stated) | 64 (≈ 21.9 µg/mL) | 20.9 | 6 |  | 32.3 |  |  | 
17 | CCCCc1ccc(CCCCCC(CO)NC(=O)OC(C)(C)C)cc1 (configuration not stated) | 64 (≈ 23.3 µg/mL) | 14.2 | 6 |  | 51.5 |  |  | 
18 | CCCCCCCCCCCC(N)CO (configuration not stated) | 64 (≈ 13.8 µg/mL) | 2.35 | 6 |  | 40.8 |  |  | 
19 | CCCCCCCCCCCCCCCC(CO)NCCCCCCCCCC (configuration not stated) | 64 (≈ 26.4 µg/mL) | 55.3 | 6 |  | 104 | 128 (≈ 52.7 µg/mL) | 512 (≈ 211 µg/mL) | > 512

— ChEMBL document CHEMBL5625167, “In vitro bioevaluation and docking study of dihydrosphingosine and ethambutol analogues against sensitive and multi-drug resistant Mycobacterium tuberculosis” (Eur J Med Chem, 2023)
